Measured values as given in patent US9434743B2, “Indazole derivatives” (TAKEDA PHARMACEUTICAL COMPANY LIMITED, priority 2012, dated 2016).

Key:
human MetAP2 enzyme [1] = biological target: T1, human MetAP2 enzyme (Homo sapiens, UniProt P50579); assay: MetAP2 enzyme assay, enzyme complexed with cobalt ions; conditions: MetAP2 Co pIC50, MetAP2 enzyme complexed with cobalt ions; Met-AMC substrate at Km
human MetAP2 enzyme [2] = biological target: T1, human MetAP2 enzyme; assay: MetAP2 enzyme assay, enzyme complexed with manganese ions; conditions: MetAP2 Mn pIC50, MetAP2 enzyme complexed with manganese ions; Met-AMC substrate at Km

T1 sequence (P50579 whole entry): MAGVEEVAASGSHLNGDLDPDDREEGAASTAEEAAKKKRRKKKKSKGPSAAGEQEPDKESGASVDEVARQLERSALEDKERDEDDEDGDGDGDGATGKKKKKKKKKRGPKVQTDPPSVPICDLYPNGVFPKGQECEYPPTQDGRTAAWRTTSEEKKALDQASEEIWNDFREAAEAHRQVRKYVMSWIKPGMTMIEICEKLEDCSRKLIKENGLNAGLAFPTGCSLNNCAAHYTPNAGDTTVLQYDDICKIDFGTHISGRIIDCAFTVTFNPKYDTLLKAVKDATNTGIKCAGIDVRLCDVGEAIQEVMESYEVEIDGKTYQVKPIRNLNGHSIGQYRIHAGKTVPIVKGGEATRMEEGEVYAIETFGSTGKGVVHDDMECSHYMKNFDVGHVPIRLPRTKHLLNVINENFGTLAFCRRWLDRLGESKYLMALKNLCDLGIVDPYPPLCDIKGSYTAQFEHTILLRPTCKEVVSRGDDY

Compound: C[C@H](O)CNC(=O)c1c[nH]c(=O)c(-c2cc(C(F)(F)F)cc3[nH]ncc23)c1 [Example 335, (S)—N-(2-hydroxypropyl)-6-oxo-5-(6-(trifluoromethyl)-1H-indazol-4-yl)-1,6-dihydropyridine-3-carboxamide]
- IC50 (human MetAP2 enzyme [1]): 631 nM
- IC50 (human MetAP2 enzyme [2]): 15.8 nM

Compound: FC(F)(F)c1cc(-c2cnc(N3CCOCC3)nc2)c2cn[nH]c2c1 [Example 118, 4-(5-(6-(trifluoromethyl)-1H-indazol-4-yl)pyrimidin-2-yl)morpholine]
- IC50 (human MetAP2 enzyme [1]): 39.8 nM
- IC50 (human MetAP2 enzyme [2]): 6.31 nM

Compound: CNc1nc(C)c(-c2cc(C(F)(F)F)cc3[nH]ncc23)cc1C(=O)N1CC(O)C1 [Example 397, (3-hydroxyazetidin-1-yl)(6-methyl-2-(methylamino)-5-(6-(trifluoromethyl)-1H-indazol-4-yl)pyridin-3-yl)methanone]
- IC50 (human MetAP2 enzyme [1]): 15.8 nM
- IC50 (human MetAP2 enzyme [2]): 3.98 nM

Compound: O=C(NCCO)c1cc(-c2cc(C(F)(F)F)cc3[nH]ncc23)c[nH]c1=O [Example 228, N-(2-hydroxyethyl)-2-oxo-5-(6-(trifluoromethyl)-1H-indazol-4-yl)-1,2-dihydropyridine-3-carboxamide]
- IC50 (human MetAP2 enzyme [1]): 158 nM
- IC50 (human MetAP2 enzyme [2]): 5.01 nM

Compound: COc1cc(-c2cc(C(F)(F)F)cc3[nH]ncc23)c(OC)nn1 [Example 248, 4-(3,6-dimethoxypyridazin-4-yl)-6-(trifluoromethyl)-1H-indazole]
- IC50 (human MetAP2 enzyme [1]): 63.1 nM
- IC50 (human MetAP2 enzyme [2]): 5.01 nM

Compound: COc1nc(C(=O)N2CC(O)C2)ccc1-c1cc(C(F)(F)F)cc2[nH]ncc12 [Example 395, (3-hydroxyazetidin-1-yl)(6-methoxy-5-(6-(trifluoromethyl)-1H-indazol-4-yl)pyridin-2-yl)methanone]
- IC50 (human MetAP2 enzyme [1]): 31.6 nM
- IC50 (human MetAP2 enzyme [2]): 6.31 nM

Compound: O=C(NCc1ccccc1)c1cccc(-c2cc(C(F)(F)F)cc3[nH]ncc23)c1 [Example 34, N-benzyl-3-(6-(trifluoromethyl)-1H-indazol-4-yl)benzamide]
- IC50 (human MetAP2 enzyme [1]): 316 nM
- IC50 (human MetAP2 enzyme [2]): 31.6 nM

Compound: CS(=O)(=O)Nc1ccc(-c2cc(C(F)(F)F)cc3[nH]ncc23)cc1 [Example 56, N-(4-(6-(trifluoromethyl)-1H-indazol-4-yl)phenyl)methanesulfonamide]
- IC50 (human MetAP2 enzyme [1]): 39.8 nM
- IC50 (human MetAP2 enzyme [2]): 12.6 nM

Compound: CCOc1ncccc1-c1cc(C(F)(F)F)cc2[nH]ncc12 [Example 133, 4-(2-ethoxypyridin-3-yl)-6-(trifluoromethyl)-1H-indazole]
- IC50 (human MetAP2 enzyme [1]): 63.1 nM
- IC50 (human MetAP2 enzyme [2]): 10 nM

Compound: FC(F)(F)c1cc(-c2cnc(-n3ccnc3)nc2)c2cn[nH]c2c1 [Example 217, 4-(2-(1H-imidazol-1-yl)pyrimidin-5-yl)-6-(trifluoromethyl)-1H-indazole]
- IC50 (human MetAP2 enzyme [1]): 158 nM
- IC50 (human MetAP2 enzyme [2]): 10 nM

Compound: CS(=O)(=O)Nc1ccccc1-c1cc(C(F)(F)F)cc2[nH]ncc12 [Example 44, N-(2-(6-(trifluoromethyl)-1H-indazol-4-yl)phenyl)methanesulfonamide]
- IC50 (human MetAP2 enzyme [1]): 50.1 nM
- IC50 (human MetAP2 enzyme [2]): 5.01 nM

Compound: NC(=O)c1cc(-c2cc(C(F)(F)F)cc3[nH]ncc23)ccn1 [Example 283, 4-(6-(trifluoromethyl)-1H-indazol-4-yl)picolinamide]
- IC50 (human MetAP2 enzyme [1]): 63.1 nM
- IC50 (human MetAP2 enzyme [2]): 3.98 nM

Compound: FC(F)(F)c1cc(-c2cccnc2)c2cn[nH]c2c1 [Example 19, 4-(pyridin-3-yl)-6-(trifluoromethyl)-1H-indazole]
- IC50 (human MetAP2 enzyme [1]): 63.1 nM
- IC50 (human MetAP2 enzyme [2]): 3.16 nM

Compound: O=C(NC1CC1)c1c[nH]c(=O)c(-c2cc(C(F)(F)F)cc3[nH]ncc23)c1 [Example 332, N-cyclopropyl-6-oxo-5-(6-(trifluoromethyl)-1H-indazol-4-yl)-1,6-dihydropyridine-3-carboxamide]
- IC50 (human MetAP2 enzyme [1]): 316 nM
- IC50 (human MetAP2 enzyme [2]): 12.6 nM

Compound: Cc1nn(CCC(N)=O)c(C)c1-c1cc(C(F)(F)F)cc2[nH]ncc12 [Example 172, 3-(3,5-dimethyl-4-(6-(trifluoromethyl)-1H-indazol-4-yl)-1H-pyrazol-1-yl)propanamide]
- IC50 (human MetAP2 enzyme [1]): 50.1 nM
- IC50 (human MetAP2 enzyme [2]): 7.94 nM

Compound: Cc1nc(C#N)ccc1-c1cc(C(F)(F)F)cc2[nH]ncc12 [Example 377, 6-methyl-5-(6-(trifluoromethyl)-1H-indazol-4-yl)picolinonitrile]
- IC50 (human MetAP2 enzyme [1]): 50.1 nM
- IC50 (human MetAP2 enzyme [2]): 5.01 nM

Compound: COc1ccc(OC)c(-c2cc(C(F)(F)F)cc3[nH]ncc23)c1 [Example 86, 4-(2,5-dimethoxyphenyl)-6-(trifluoromethyl)-1H-indazole]
- IC50 (human MetAP2 enzyme [1]): 15.8 nM
- IC50 (human MetAP2 enzyme [2]): 3.16 nM

Compound: FC(F)(F)c1cc(-c2cccc(-n3cccn3)c2)c2cn[nH]c2c1 [Example 69, 4-(3-(1H-pyrazol-1-yl)phenyl)-6-(trifluoromethyl)-1H-indazole]
- IC50 (human MetAP2 enzyme [1]): 158 nM
- IC50 (human MetAP2 enzyme [2]): 6.31 nM

Compound: O=C(NCCO)c1ccc(-c2cc(C(F)(F)F)cc3[nH]ncc23)cn1 [Example 270, N-(2-hydroxyethyl)-5-(6-(trifluoromethyl)-1H-indazol-4-yl)picolinamide]
- IC50 (human MetAP2 enzyme [1]): 39.8 nM
- IC50 (human MetAP2 enzyme [2]): 3.16 nM

Compound: N#Cc1cnc2c(-c3cc(C(F)(F)F)cc4[nH]ncc34)cnn2c1N [Example 159, 7-amino-3-(6-(trifluoromethyl)-1H-indazol-4-yl)pyrazolo[1,5-a]pyrimidine-6-carbonitrile]
- IC50 (human MetAP2 enzyme [1]): 1580 nM
- IC50 (human MetAP2 enzyme [2]): 158 nM

Compound: COc1ccc(C(=O)N2CC(O)C2)cc1-c1cc(C(F)(F)F)cc2[nH]ncc12 [Example 328, (3-hydroxyazetidin-1-yl)(4-methoxy-3-(6-(trifluoromethyl)-1H-indazol-4-yl)phenyl)methanone]
- IC50 (human MetAP2 enzyme [1]): 12.6 nM
- IC50 (human MetAP2 enzyme [2]): 12.6 nM

Compound: Cn1cc(C(=O)NC2CC2)cc(-c2cc(C(F)(F)F)cc3[nH]ncc23)c1=O [Example 357, N-cyclopropyl-1-methyl-6-oxo-5-(6-(trifluoromethyl)-1H-indazol-4-yl)-1,6-dihydropyridine-3-carboxamide]
- IC50 (human MetAP2 enzyme [1]): 200 nM
- IC50 (human MetAP2 enzyme [2]): 7.94 nM

Compound: Cc1noc(C)c1-c1cc(C(F)(F)F)cc2[nH]ncc12 [Example 80, 3,5-dimethyl-4-(6-(trifluoromethyl)-1H-indazol-4-yl)isoxazole]
- IC50 (human MetAP2 enzyme [1]): 79.4 nM
- IC50 (human MetAP2 enzyme [2]): 7.94 nM

Compound: FC(F)(F)c1cc(-c2ccc(-c3ccn[nH]3)cc2)c2cn[nH]c2c1 [Example 62, 4-(4-(1H-pyrazol-5-yl)phenyl)-6-(trifluoromethyl)-1H-indazole]
- IC50 (human MetAP2 enzyme [1]): 100 nM
- IC50 (human MetAP2 enzyme [2]): 12.6 nM

Compound: Cc1cccnc1-c1cc(C(F)(F)F)cc2[nH]ncc12 [Example 135, 4-(3-methylpyridin-2-yl)-6-(trifluoromethyl)-1H-indazole]
- IC50 (human MetAP2 enzyme [1]): 158 nM
- IC50 (human MetAP2 enzyme [2]): 10 nM

Compound: COc1ccc(C)nc1-c1cc(C(F)(F)F)cc2[nH]ncc12 [Example 200, 4-(3-methoxy-6-methylpyridin-2-yl)-6-(trifluoromethyl)-1H-indazole]
- IC50 (human MetAP2 enzyme [1]): 316 nM
- IC50 (human MetAP2 enzyme [2]): 50.1 nM

Compound: FC(F)(F)c1cc(-c2cnc3ccnn3c2)c2cn[nH]c2c1 [Example 275, 6-(6-(trifluoromethyl)-1H-indazol-4-yl)pyrazolo[1,5-a]pyrimidine]
- IC50 (human MetAP2 enzyme [1]): 126 nM
- IC50 (human MetAP2 enzyme [2]): 5.01 nM

Compound: Nc1ncccc1-c1cc(C(F)(F)F)cc2[nH]ncc12 [Example 78, 3-(6-(trifluoromethyl)-1H-indazol-4-yl)pyridin-2-amine]
- IC50 (human MetAP2 enzyme [1]): 100 nM
- IC50 (human MetAP2 enzyme [2]): 5.01 nM

Compound: Cc1nc(C)c(-c2cc(C(F)(F)F)cc3[nH]ncc23)s1 [Example 40, 2,4-dimethyl-5-(6-(trifluoromethyl)-1H-indazol-4-yl)thiazole]
- IC50 (human MetAP2 enzyme [1]): 39.8 nM
- IC50 (human MetAP2 enzyme [2]): 10 nM

Compound: O=C(c1c[nH]c(=O)c(-c2cc(C(F)(F)F)cc3[nH]ncc23)c1)N1CCOCC1 [Example 298, 5-(morpholine-4-carbonyl)-3-(6-(trifluoromethyl)-1H-indazol-4-yl)pyridin-2(1H)-one]
- IC50 (human MetAP2 enzyme [1]): 398 nM
- IC50 (human MetAP2 enzyme [2]): 10 nM

Compound: FC(F)(F)c1cc(-c2cnc3[nH]ncc3c2)c2cn[nH]c2c1 [Example 243, 5-(6-(trifluoromethyl)-1H-indazol-4-yl)-1H-pyrazolo[3,4-b]pyridine]
- IC50 (human MetAP2 enzyme [1]): 39.8 nM
- IC50 (human MetAP2 enzyme [2]): 5.01 nM

Compound: OCc1ccccc1-c1cc(C(F)(F)F)cc2[nH]ncc12 [Example 12, (2-(6-(trifluoromethyl)-1H-indazol-4-yl)phenyl)methanol]
- IC50 (human MetAP2 enzyme [1]): 39.8 nM
- IC50 (human MetAP2 enzyme [2]): 3.16 nM

Compound: O=C(O)Cn1cc(-c2cc(C(F)(F)F)cc3[nH]ncc23)ccc1=O [Example 374, 2-(2-oxo-5-(6-(trifluoromethyl)-1H-indazol-4-yl)pyridin-1(2H)-yl)acetic acid]
- IC50 (human MetAP2 enzyme [1]): 1580 nM
- IC50 (human MetAP2 enzyme [2]): 63.1 nM

Compound: Cc1nnc(-c2ccc(-c3cc(C(F)(F)F)cc4[nH]ncc34)cc2)o1 [Example 120, 2-methyl-5-(4-(6-(trifluoromethyl)-1H-indazol-4-yl)phenyl)-1,3,4-oxadiazole]
- IC50 (human MetAP2 enzyme [1]): 63.1 nM
- IC50 (human MetAP2 enzyme [2]): 15.8 nM

Compound: COc1nccc(C)c1-c1cc(C(F)(F)F)cc2[nH]ncc12 [Example 123, 4-(2-methoxy-4-methylpyridin-3-yl)-6-(trifluoromethyl)-1H-indazole]
- IC50 (human MetAP2 enzyme [1]): 63.1 nM
- IC50 (human MetAP2 enzyme [2]): 31.6 nM

Compound: N#Cc1cccc(-c2cc(C(F)(F)F)cc3[nH]ncc23)c1 [Example 33, 3-(6-(trifluoromethyl)-1H-indazol-4-yl)benzonitrile]
- IC50 (human MetAP2 enzyme [1]): 100 nM
- IC50 (human MetAP2 enzyme [2]): 10 nM

Compound: Cn1cnc(N)c(-c2cc(C(F)(F)F)cc3[nH]ncc23)c1=O [Example 245, 6-amino-3-methyl-5-(6-(trifluoromethyl)-1H-indazol-4-yl)pyrimidin-4(3H)-one]
- IC50 (human MetAP2 enzyme [1]): 1580 nM
- IC50 (human MetAP2 enzyme [2]): 31.6 nM

Compound: Cc1c(-c2cc(C(F)(F)F)cc3[nH]ncc23)ccc2ncnn12 [Example 393, 5-methyl-6-(6-(trifluoromethyl)-1H-indazol-4-yl)-[1,2,4]triazolo[1,5-a]pyridine]
- IC50 (human MetAP2 enzyme [1]): 50.1 nM
- IC50 (human MetAP2 enzyme [2]): 6.31 nM

Compound: COC(=O)c1c[nH]c(=O)c(-c2cc(C(F)(F)F)cc3[nH]ncc23)c1 [Example 265, methyl 6-oxo-5-(6-(trifluoromethyl)-1H-indazol-4-yl)-1,6-dihydropyridine-3-carboxylate]
- IC50 (human MetAP2 enzyme [1]): 100 nM
- IC50 (human MetAP2 enzyme [2]): 10 nM

Compound: CN(C)C(=O)c1ccc(-c2cc(C(F)(F)F)cc3[nH]ncc23)cc1 [Example 119, N,N-dimethyl-4-(6-(trifluoromethyl)-1H-indazol-4-yl)benzamide]
- IC50 (human MetAP2 enzyme [1]): 100 nM
- IC50 (human MetAP2 enzyme [2]): 7.94 nM
